Results taken from patent publication US8440718B2, “Modulation of inflammation related to columnar epithelia” (The Brigham and Women's Hospital, Inc., priority 1991, dated 2013).
Several values for one entry are separate records, joined by “and”; a condition that tells them apart may be missing. Identical values can stand only once.

Legend:
[1] = test system: human PMN migration across T84 epithelial monolayers; test: Effect of inhibitors on baseline and LXA4-elicited PMN transepithelial migration, apical-to-basolateral; assay type: cell-based; conditions: for LXA4-elicited increase in fMLP driven PMN migration over control: LXA4 10 nM
[2] = biological target: lipoxin binding sites on human PMN; conditions: reported; cited from earlier work
[3] = test system: T84 intestinal epithelial cells; test: fMLP-induced PMN migration after LXA4 exposure of T84 epithelial monolayers; assay type: cell-based, human
Experimental: Lipoxins Synthetic LXA4, LXB4, and 11-trans-LXA4 were obtained from Cascade Biochem Ltd. (Berkshire, United Kingdom). Concentrations were determined from extinction coefficients as described in Sheppard K-A., et al. (1992). Biochimica et Biophysica Acta 1133: 223-234. All eicosanoid stock solutions were stored at −70° C. in […] (American Scientific Products). Eicosanoids were diluted in modified HBSS to a concentration of 1 μM prior to all experiments. PMN or T84 monolayers were exposed to lipoxins at indicated concentrations and allowed to incubate at 37° C. for the indicated period of time. Vehicle controls consisted of dilutions of the solvent (ethanol) equivalent to the highest concentration of lipoxin used in any given experiment (0.01%). […]
Migration was quantitated by assaying for the PMN azurophilic granule marker myeloperoxidase (MPO) as described previously (Parkos C. A., et al. (1991). J. Clin. Invest 88: 1605-1612). Following each migration assay, non-adherent PMN were extensively washed from the surface of the monolayer and PMN cell equivalents (PMN CE), estimated from a standard curve, were assessed as the number of PMN's associated with the monolayer, the number which had completely traversed the monolayer (ie. across the monolayer into the reservoir bath), as well as the total number of transmigrating PMN (the sum of monolayer and reservoir-associated PMN). […]

[4] = test system: human PMN migration across inverted T84 epithelial monolayers; test: PMN transepithelial migration assay, basolateral-to-apical direction (inverted monolayers), fMLP gradient, myeloperoxidase readout; assay type: cell-based
Experimental: Cell culture Approximately 350 epithelial monolayers were used for these studies. T84 intestinal epithelial cells (passages 70-95) were grown and maintained as confluent monolayers on collagen coated permeable support. Monolayers were grown on 0.33 cm^2 ring-supported polycarbonate filters (Costar Corp., Cambridge, Mass.) and utilized 6-14 days after plating as described in Example 2. Transepithelial resistance to passive ion flow was measured as described in Parkos C. A., et al. (1991). J. Clin. Invest. 88: 1605-1612); and Parkos C. A., et al. (1992). J. Cell. Biol. 117: 757-764). Inverted monolayers used to study migration of PMN in the basolateral-to-apical direction were constructed as described in Parkos C. A., et al. (1991). J. Clin. Invest. 88:1605-1612).
Migration assay: The PMN transepithelial migration assay has been detailed in Nash S., et al. (1987). J. Clin. Invest. 80: 1104-1113; Nash S., et al. (1991). J. Clin. Invest 87: 1474-1477); Parkos C. A., et al. (1991). J. Clin. Invest. 88: 1605-1612); and Parkos C. A., et al. (1992). J. Cell. Biol. 117: 757-764. Briefly, human PMN were isolated from normal human volunteers and suspended in modified HBSS (without Ca^2+ and Mg^2+, with 10 mM Hepes, pH 7.4, Sigma) at a concentration of 5×10^7/ml. Prior to addition of PMN, T84 monolayers were extensively rinsed in HBSS to remove residual serum components. Migration assays were performed by the addition of PMN (40 μl) to HBSS ([…]) in the upper chambers after chemoattractant (1 μM fMLP in HBSS) was added to the opposing (lower) chambers. Unless otherwise indicated, PMN were not washed free of LXA4 prior to addition to monolayers, and therefore, a five-fold dilution of lipoxin was present during the migration assay. For apical-to-basolateral migration experiments, PMN (2×10^6) were added at time 0. Migration in the basolateral-to-apical direction, while qualitatively similar, is substantially more efficient than in the apical-to-basolateral direction. (Parkos C. A., et al. (1991). J. Clin. Invest. 88: 1605-1612). Therefore, 5-fold fewer PMN (4×10^5) were added when migration proceeded in the basolateral-to-apical direction in order that baseline migration signals be approximately equivalent in both directions. (Parkos C. A., et al. (1991). J. Clin. Invest. 88: 1605-1612). Migration was allowed to proceed for 120 minutes, unless otherwise noted. All PMN transepithelial migration experiments were performed in a 37° C. room to ensure that epithelial monolayers, solutions, plasticware, etc., were maintained at uniform 37° C. temperature.
Migration was quantitated by assaying for the PMN azurophilic granule marker myeloperoxidase (MPO) as described previously (Parkos C. A., et al. (1991). J. Clin. Invest 88: 1605-1612). Following each migration assay, non-adherent PMN were extensively washed from the surface of the monolayer and PMN cell equivalents (PMN CE), estimated from a standard curve, were assessed as the number of PMN's associated with the monolayer, the number which had completely traversed the monolayer (ie. across the monolayer into the reservoir bath), as well as the total number of transmigrating PMN (the sum of monolayer and reservoir-associated PMN).
Data Presentation: Individual experiments were performed using large numbers of uniform groups of monolayers and PMN from individual blood donors on individual days. PMN isolation was restricted to five different blood donors (repetitive donations) over the course of these studies. Myeloperoxidase assay data were compared by two-factor analysis of variance (ANOVA) or by comparison of means using Student's t-Test PMN migration results are represented as PMN CE derived from a daily standard PMN dilution curve. Monolayer-associated PMN are represented as the number of PMN CE per monolayer and reservoir-associated PMN (ie. PMN which had completely traversed the monolayer into the lower chamber) are represented as the number of PMN CE/ml (total volume of 1 ml). […]

## CCCCC[C@H](O)/C=C/C=C\C=C\C=C\[C@@H](O)[C@@H](O)CCCC(=O)O (relative stereo) [LXA4, (5S, 6R, 15S)-trihydroxy-7,9,13-trans-11-cis-eicosatetraenoic acid]
[1]; PMN pre-exposed to indomethacin 50 μM
  LXA4-elicited increase in fMLP driven PMN migration over control: 61±11%
[1]; without indomethacin
  LXA4-elicited increase in fMLP driven PMN migration over control: 54±7%
[1]; LXA4 10 μM (so in the source), pertussis toxin experiment
  LXA4-elicited increase in PMN migration compared to control: 46±3%
[2]
  Kd: 0.5 nM
[3]; T84 monolayers incubated with 10 nM LXA4 15 min 37°C, LXA4 not removed, untreated PMN, 1 μM fMLP
  total number of transmigrating PMN: 15.7±1.8 ×10^4 PMN CE/ml
[3]; T84 monolayers incubated with 10 nM LXA4 15 min, LXA4 removed by washing thrice with HBSS before PMN
  total number of transmigrating PMN: 14.3±1.1 ×10^4 PMN CE/ml
[4]; 10 nM, 15 min pre-incubation 37°C, 1 μM fMLP, 120 min
  inhibition of PMN migration, basolateral-to-apical (total MPO activity): 28±4% and 25%
[4]; PMN pre-exposed 1 nM LXA4 15 min
  transmigrated (reservoir) PMN, basolateral-to-apical: 6.99±1.33 ×10^4 PMN/ml
[4]; PMN pre-exposed 10 nM LXA4 15 min
  monolayer-associated PMN, basolateral-to-apical: 2.00±0.31
